Reference: US20080299108A1, “Peptides for Diagnostic and Therapeutic Methods for Celiac Sprue” (priority 2005, published 2008)

Legend:
[1] = target: T1, tissue transglutaminase (tTGase) (Homo sapiens, UniProt P21980); conditions: cited from earlier work
T1 sequence (P21980 1-687): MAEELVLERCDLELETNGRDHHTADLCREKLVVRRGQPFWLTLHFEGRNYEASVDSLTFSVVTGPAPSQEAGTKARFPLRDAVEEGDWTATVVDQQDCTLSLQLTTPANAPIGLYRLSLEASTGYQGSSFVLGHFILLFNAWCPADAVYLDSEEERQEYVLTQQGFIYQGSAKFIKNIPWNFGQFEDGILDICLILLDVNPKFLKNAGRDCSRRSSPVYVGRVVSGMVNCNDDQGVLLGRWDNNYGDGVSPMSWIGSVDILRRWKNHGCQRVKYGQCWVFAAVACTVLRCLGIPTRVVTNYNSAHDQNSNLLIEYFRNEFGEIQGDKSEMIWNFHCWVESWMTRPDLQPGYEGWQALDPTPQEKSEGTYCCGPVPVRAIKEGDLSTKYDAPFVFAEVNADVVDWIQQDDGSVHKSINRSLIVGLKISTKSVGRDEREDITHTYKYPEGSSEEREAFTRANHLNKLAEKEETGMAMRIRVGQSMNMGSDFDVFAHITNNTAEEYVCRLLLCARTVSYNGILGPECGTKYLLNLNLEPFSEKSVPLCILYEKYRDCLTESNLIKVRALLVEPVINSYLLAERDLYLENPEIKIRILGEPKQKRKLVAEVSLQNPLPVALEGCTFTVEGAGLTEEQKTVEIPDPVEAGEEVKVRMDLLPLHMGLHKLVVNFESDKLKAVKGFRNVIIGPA

[2] = system: pancreatic proteases (elastase, trypsin, chymotrypsin); type: in vitro ADME
From the text: Because BBM exopeptidases are restricted to N- or C-terminal processing, it was investigated if generation of additional free peptide ends by pancreatic enzymes would accelerate digestion.

Sequence: PQPQLPYPQPQLPY
- specificity of tTGase relative to its target peptide sequence in fibrinogen [1]: 5 fold
- proteolysis with trypsin or chymotrypsin [2]: No proteolysis was detected
- hydrolysis by elastase ([2]; elastase at a high (non-physiological) concentration of 100 ng/μl): capable of hydrolyzing
